Measured values from the NIST ThermoML archive (doi:10.1021/je8006309).
Numbers after ± are expanded uncertainties.

Legend:
[1] = for Normal melting temperature: Crystal
[2] = Molar enthalpy of transition or fusion; details: Crystal; DSC

Normal melting temperature [1] [°C]	Normal melting temperature ([1]; DTA) [°C]	Glass transition temperature ([1]; Glass, DTA) [°C]	Molar enthalpy of transition or fusion [2] [kcal/mol]	Structure (SMILES)
7.36 ± 0.93				CCCCCCCCCCO [decan-1-ol]
	5.14 ± 0.39			c1ccccc1 [benzene]
	51.71 ± 0.39	-57.3 ± 3	3.42 ± 0.0908	CCCC[n+]1ccc(C)cc1.Cc1ccc(S(=O)(=O)[O-])cc1 [N-butyl-4-methylpyridinium tosylate]
0.00 ± 0.93				O [water]
-14.00 ± 0.93				CCCCCCCCO [octan-1-ol]
